According to paper PMC13338763, “Harnessing albumin as a carrier for the delivery of anti-HIV drugs to the lymphatic system” (Acta biomaterialia, 2025):
In brackets after ≈: the same amount, converted by molar mass.

Assays:
TZM-bl cells = assay: Cell viability assay (CellTiter-Glo 2.0); assay type: cell-based; conditions: 48 h
Description: DTG and hEB-DTG prodrug cytotoxicity was measured at different concentrations against TZM-bl reporter cell line in the presence or absence of HIV-WT virus using the CellTiter-Glo™ 2.0 Assay (Promega, WI, USA) according to the manufacturer’s protocol. TZM-bl cells were seeded in the 96-well white plate at a density of 1 × 10^4 cells/well, and after 24 h, the cells were infected with HIV-WT virus and treated with DTG and hEB-DTG in a concentration range (diluted 1:100) from 3 × 10^−1 mg/mL to 3 × 10^−15 mg/mL. After 48 h, cells were subjected to CellTiter-Glo™ 2.0 Assay (Promega). The CellTiter-Glo™ 2.0 Reagent was equilibrated to room temperature and gently mixed. 100 μL of CellTiter-Glo™ 2.0 Reagent was added to each well containing 100 μL of cells in the medium. Contents were shaken in an orbital shaker for 2 min and incubated at room temperature for precisely 10 min, and then luminescence was measured with a Varioskan LUX Multimode Microplate Reader. Untreated/infected cells were used as a baseline control. Viability of cells was presented as a percentage of OD values of the control cells. For each assay run, data points were collected in triplicate.

HIV-WT virus = assay: Drug susceptibility assay (luciferase reporter in TZM-bl cells); assay type: cell-based, human immunodeficiency virus; conditions: TZM-bl cells infected with HIV-WT, 48 h
Description: DTG and hEB-DTG luciferase expression levels were measured at different concentrations against TZM-bl reporter cell line in the presence of HIV-WT virus using the Britelite Plus Ultra-High Sensitivity Luminescence Reporter Gene Assay System (Revvity, MA, USA) according to the manufacturer’s protocol. TZM-bl cells were seeded in clear bottom white 96-well plate in a total volume of 200 μl DMEM-10 complete (+ 10 % FBS + 1 % penicillin/streptomycin) at a density of 1 × 10^4 cells/well. After 24 h, the cells were infected with the HIV-WT virus and treated with DTG and hEB-DTG in a concentration range (serial diluted 1:100) from 3 × 10^−1 mg/mL to 3 × 10^−15 mg/mL in PRF-10 complete media (+10 % FBS + 1 % penicillin/streptomycin). After 48 h of incubation, the cells were subjected to Britelite Plus Ultra-High Sensitivity Luminescence Reporter Gene Assay System (Revvity). The Britelite plus Lyophilized Substrate was reconstituted with the given Britelite Plus Reconstitution Buffer. After gently inverting and settling the solution for 5 min, 100 μL of the reconstituted Britelite Substrate solution was added to each well containing 100 μL of cells in the medium. Luminescence was measured with a Varioskan LUX Multimode Microplate Reader precisely after 2 min. Untreated/infected cells were used as baseline control. The inhibitory concentrations of each drug were presented as a percentage of OD value of the control cells. For each assay run, data points were collected in triplicate.

[1] = PK study: DTG in serum by HPLC-MS; assay type: in vivo, mice
Description: Five (5) mg/kg DTG, or hEB-DTG containing equivalent amount of DTG were i.v. injected into mice. After 1, 4, 12, 24 or 48 h, serum and LNs were collected. Samples were homogenized and vortex in 1 mL mixture of water and methanol (1/1, v/v), and then another 1 mL mixture of methanol and acetonitrile (1/1, v/v) was added for extraction. After centrifugation at 12,500 g for 10 min, the supernatants were collected for measurement under HPLC-MS with a previously reported method. For hydrolysis of the ester bond in hEB-DTG to release free DTG, the biological samples suspension mentioned above were incubated in 300 mg/mL guanidine hydrochloride solution at 80 °C for 24 h before extraction.

Aqueous solubility = assay type: physicochemical; conditions: water
BSA = BSA (Bos taurus, UniProt P02769); assay: Gel retardation study with BSA; assay type: binding, bovine; conditions: in words
Description: Twenty (20) μg EB, hEB, hEB-platin, or hEB-DTG were mixed with or without various amounts of BSA, globulin, fibrinogen or FBS in 200 μL saline water, then 40 μL of the mixed solution were loaded to 1.5 % agarose gel and run under 120 V for 30 min.

HUVEC monolayer = assay: Transwell study: transport across a HUVEC monolayer, flow cytometry of HEK293T cells in lower chamber; assay type: cell-based; conditions: albumin-bound, 8 h, in words
Description: HEK293T were seeded to 6-well plates as lower chamber and HUVEC were seeded to Corning (NY, USA) 6-well plate inserts (0.4 μm pore size) in another plate as upper chamber, respectively. After incubation and the cell layer on the upper chamber became intact, the culture medium in the inserts was replaced by fresh medium containing 0, 5 or 20 μg/mL filipin and 0 or 10 μg/mL LPS for overnight incubation. Next, the culture medium in the inserts was replaced with fresh medium containing 10 μM EB, hEB or hEB-DTG and 2 mg/mL BSA, then the inserts were moved to the wells cultured with HEK293T cells for incubation of 8 h at 37 °C. After that, HEK293T cells in the lower chambers were washed with cold PBS.
EB signals in HEK293T cells were quantified by flow cytometry. Fluorescence was examined at an excitation wavelength of 532 nm and an emission wavelength of 660 nm. 10 × 10^4 events were collected for each sample.

HEK293T cells = assay: Cellular uptake study in vitro (flow cytometry); assay type: cell-based; conditions: in words
Description: HEK293T or HUVEC cells were seeded to 6-well plates. After overnight incubation, the culture medium was replaced by fresh medium containing 10 μM EB and 2, 5, or 20 mg/mL BSA for incubation of 0.5, 1 or 3 h at 37 °C. Later, cells were washed with cold PBS and fixed with PBS containing 4 % (w/v) formaldehyde.
Cellular uptake of different treatments was quantified by flow cytometry. Fluorescence was examined at an excitation wavelength of 532 nm and an emission wavelength of 660 nm. 10 × 10^4 events were collected for each sample.

[2] = Release of DTG from hEB-DTG (storage stability and in vitro release kinetics, HPLC-MS); assay type: physicochemical; conditions: for DTG released (cumulative): PBS
[3] = Distribution in LN tissue and cells in LNs after i.v. injection (fluorescence microscopy, flow cytometry); assay type: in vivo; conditions: in words
Description: Five (5) μM/kg EB, hEB or hEB-DTG were i.v. injected into mice pretreated intraperitoneally with or without 2.5 mg/kg LPS for 24 h. After 24 h, LNs from different sites were collected and their signals of EB were checked under fluorescent microscopy. To evaluate the EB signals in various types of cells, LNs were disrupted mechanically using scissors, digested with a mixture of deoxyribonuclease I (0.3 mg/mL, Sigma-Aldrich) and TL Liberase (0.25 mg/mL, Roche, IN, USA) in serum-free RPMI-1640 at 37 °C for 30 min, and dispersed through a 40 μm cell strainer (BD Biosciences, CA, USA). After red blood cell lysis, live/dead cell discrimination was performed using a Zombie NIR Fixable Viability Kit (BioLegend, CA, USA, dilution: 1/1000) at 4 °C for 30 min in DPBS. Surface staining was performed at 4 °C for 30 min in FACS staining buffer (1 × phosphate-buffered saline/5 % FBS/0.5 % sodium azide) containing designated antibody cocktails (PerCP anti-mouse CD45 antibody, Brilliant Violet 785 anti-mouse CD4 antibody, FITC anti-mouse CD8 antibody, APC anti-mouse CD11b antibody, APC/Cyanine7 anti-mouse F4/80 antibody, Pacific Blue anti-mouse CD19 antibody and AF647 anti-mouse CD27 antibody; dilution: 1/200 for all antibodies). Flow cytometry was performed with LSRII (BD Biosciences) and Aurora (Cytek Biosciences, CA, USA) instruments and analyzed by FlowJo (BD Biosciences). The EB signals in each type of cell were quantified as mentioned above.

BSA, sequence (P02769 25-607): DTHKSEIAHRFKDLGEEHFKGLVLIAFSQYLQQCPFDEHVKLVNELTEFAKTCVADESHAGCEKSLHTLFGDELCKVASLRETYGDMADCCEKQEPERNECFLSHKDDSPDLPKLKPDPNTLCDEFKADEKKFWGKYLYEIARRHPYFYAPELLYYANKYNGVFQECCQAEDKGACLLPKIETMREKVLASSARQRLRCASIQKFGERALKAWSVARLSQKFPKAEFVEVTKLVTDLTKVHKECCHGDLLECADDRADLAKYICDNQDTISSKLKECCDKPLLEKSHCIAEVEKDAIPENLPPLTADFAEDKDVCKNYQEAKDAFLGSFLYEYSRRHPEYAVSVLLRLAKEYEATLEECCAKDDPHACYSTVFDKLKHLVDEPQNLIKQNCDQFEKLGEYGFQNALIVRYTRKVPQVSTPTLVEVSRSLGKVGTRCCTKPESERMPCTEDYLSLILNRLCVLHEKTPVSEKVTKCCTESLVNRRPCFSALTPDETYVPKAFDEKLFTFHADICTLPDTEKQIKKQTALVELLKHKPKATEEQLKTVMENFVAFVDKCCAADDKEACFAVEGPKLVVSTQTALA

SMILES | concentrations above which cell viability began to decline (TZM-bl cells) | concentrations with minimal cytotoxicity (TZM-bl cells) | concentrations that potently inhibited HIV-WT replication (HIV-WT virus) [ng/mL] | clearance ([1]; mouse, serum, iv, single i.v. injection of free DTG 5 mg/kg, one-compartment model, read-out: CL, free DTG in serum (converted)) [mL/min] | half-life ([1]; mouse, serum, iv, single i.v. injection of free DTG 5 mg/kg, one-compartment model, read-out: t1/2, free DTG in serum (converted)) [h] | solubility (Aqueous solubility) [µg/mL] | binding affinity for BSA (BSA) | transport across endothelial cell monolayer (HUVEC monolayer) | cellular uptake (HEK293T cells) | DTG released (cumulative) ([2]; 37 °C, over 96 h) | DTG released (cumulative) ([2]; 37 °C, within 24 h) | DTG release in serum compared with PBS ([2]; 37 °C, serum) | DTG released ([2]; over 30 days at room temperature, storage conditions) [%] | antiviral potency relative to free DTG (HIV-WT virus) | released DTG concentration in blood vs free DTG group ([1]; 1 h post-injection) | fluorescence signal in LNs ([3]; 24 h post i.v. injection) | uptake by immune cell populations in LNs ([3]; flow cytometry)
C[C@@H]1CCO[C@H]2Cn3cc(C(=O)NCc4ccc(F)cc4F)c(=O)c(O)c3C(=O)N12 [DTG, dolutegravir] | exceeded 1 μg/mL | below 100 ng/mL | ≥ 10 | 0.00411 | 3.61 | 40 (≈ 0.0954 mM) |  |  |  |  |  |  |  |  |  |  | 
Cc1cc(-c2ccc(/N=N/c3ccc4c(S(=O)(=O)O)cc(S(=O)(=O)O)c(N)c4c3O)c(C)c2)ccc1N [hEB, half-truncated Evans Blue] |  |  |  |  |  |  | retained strong binding affinity |  |  |  |  |  |  |  |  |  | 
Cc1cc(-c2ccc(NCC(=O)Oc3c4n(cc(C(=O)NCc5ccc(F)cc5F)c3=O)C[C@@H]3OCC[C@@H](C)N3C4=O)c(C)c2)ccc1/N=N/c1ccc2c(S(=O)(=O)O)cc(S(=O)(=O)O)c(N)c2c1O [hEB-DTG] | exceeded 1 μg/mL | below 100 ng/mL | ≥ 10 |  |  | 9640 (≈ 9.62 mM) | maintained strong binding ability | successfully transported | efficiently internalized | ~ 60% | ~ 30% | slower | 0.83 | slightly less potent | slightly higher | comparable to that of hEB alone | significant EB signals were detected in all cell types analyzed
